Assay results published in US11168095B2, “ASK1 inhibiting agents” (BIOGEN MA INC., priority 2017, dated 2021).
Read-outs that look alike come from different tables or passages of the source.

Legend:
[1] = target: ASK1 T838 auto phosphorylation in HEK-293T cells (Homo sapiens (Human), UniProt Q99683); experiment: ASK1 (AUTO PHOS T838) assay, MSD format; assay type: cell-based; details: HEK 293T cells transfected with ASK1-V5 full length plasmid, compounds 1 hr at 37° C.; read-out: IC50
Experimental: The plates were incubated at 37° C. overnight. Media on plates was changed to OPTI-MEM, serum free media and cells were transfected with 9 μg of ASK1-V5 tagged full length plasmid using Lipofectamine 2000 (Invitrogen) and the plates were incubated at 37° C. overnight. Cells were trypsinized, counted on Nexcellometer and plated into 96 well tissue culture plates with 100,000 cells/well and 200 μL media. Cells were incubated for 4 hr at 37° C. then ASK1 compounds were added using a HP 300e. Compounds were tested at 20 μM with 3 fold, 10 point dilution points then incubated for 1 hr at 37° C. A lysis buffer (Cell Signaling) was prepared with protease and phosphatase inhibitor and maintained at 4° C. until use. Media from cells was discarded and 120 μL of cold lysis buffer was added to the cells, the plate was shaken 4° C. for 1 hr. Lysate was mixed using Apricot liquid handler; aspirating up and down 16 times at high speed using 50 μL volume. […] Plates were then incubated on a plate shaker overnight at 4° C. Plates were washed 3× with MSD wash buffer and 50 μL of rabbit anti-pASK1 T838 antibody was added to the wells and incubated for 2 hr at room temperature on a plate shaker. Plates were then washed and 50 μL of goat anti-rabbit sulfa-tag (1:500 dilution) was added to wells, and incubated for 1 hr at room temperature on a plate shaker. […] Plates were immediately read on a MSD Instrument Reader where chemoluminecense signal was measured. Data was analyzed using Graph Pad or Genedata, the data was normalized and plotted, % activity versus log of compound concentration. The IC50 values were obtained from a 4 parameter fit.

ASK1/MAP3K5 = ASK1/MAP3K5 (Homo sapiens (Human), UniProt Q99683); experiment: ASK1/MAP3K5 assay by Reaction Biology Corp.; assay type: biochemical
Sequence of ASK1/MAP3K5 (Q99683 whole entry): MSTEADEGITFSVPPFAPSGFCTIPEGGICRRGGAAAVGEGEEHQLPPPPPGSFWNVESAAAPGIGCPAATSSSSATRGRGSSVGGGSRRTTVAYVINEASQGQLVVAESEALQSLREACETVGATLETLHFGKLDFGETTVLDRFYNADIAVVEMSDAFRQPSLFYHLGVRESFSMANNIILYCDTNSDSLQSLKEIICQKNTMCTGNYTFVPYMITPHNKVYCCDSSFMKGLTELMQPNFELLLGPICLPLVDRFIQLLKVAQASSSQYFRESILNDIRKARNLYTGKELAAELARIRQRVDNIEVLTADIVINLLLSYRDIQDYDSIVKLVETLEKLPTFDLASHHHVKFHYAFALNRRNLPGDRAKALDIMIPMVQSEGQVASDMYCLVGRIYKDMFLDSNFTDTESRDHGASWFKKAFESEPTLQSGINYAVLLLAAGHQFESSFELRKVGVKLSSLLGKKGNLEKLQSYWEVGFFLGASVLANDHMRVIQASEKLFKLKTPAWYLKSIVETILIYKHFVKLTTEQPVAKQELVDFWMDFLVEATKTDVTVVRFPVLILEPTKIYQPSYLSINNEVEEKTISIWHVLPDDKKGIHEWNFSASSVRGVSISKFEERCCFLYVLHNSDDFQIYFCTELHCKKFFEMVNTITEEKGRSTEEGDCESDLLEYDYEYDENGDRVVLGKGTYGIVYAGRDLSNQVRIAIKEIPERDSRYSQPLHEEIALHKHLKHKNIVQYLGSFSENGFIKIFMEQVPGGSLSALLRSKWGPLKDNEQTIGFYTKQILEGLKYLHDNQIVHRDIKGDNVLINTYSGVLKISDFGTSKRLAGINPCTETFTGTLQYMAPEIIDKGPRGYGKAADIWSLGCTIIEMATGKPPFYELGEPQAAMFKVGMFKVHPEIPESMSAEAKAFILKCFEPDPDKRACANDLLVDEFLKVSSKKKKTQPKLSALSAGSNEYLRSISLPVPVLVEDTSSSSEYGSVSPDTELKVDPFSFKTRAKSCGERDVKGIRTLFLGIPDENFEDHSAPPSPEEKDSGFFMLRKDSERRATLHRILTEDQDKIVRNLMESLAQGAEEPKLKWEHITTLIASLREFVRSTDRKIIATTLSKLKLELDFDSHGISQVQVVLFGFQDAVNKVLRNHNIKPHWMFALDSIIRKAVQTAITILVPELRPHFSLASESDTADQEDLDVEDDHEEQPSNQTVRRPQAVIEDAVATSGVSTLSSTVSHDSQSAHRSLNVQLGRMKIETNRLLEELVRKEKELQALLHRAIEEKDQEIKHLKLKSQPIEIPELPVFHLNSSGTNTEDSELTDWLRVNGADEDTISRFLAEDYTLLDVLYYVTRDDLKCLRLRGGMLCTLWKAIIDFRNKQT
Experimental: ASK1/MAP3K5 was used as the protein kinase and 20 μM of myelin basic protein (MBP) and 10 μM ATP were used as the substrate.

[2] = 20 μM myelin basic protein (MBP), 10 μM ATP

Sequence of ASK1 T838 auto phosphorylation in HEK-293T cells (Q99683 whole entry): as above

Row | Structure (SMILES) | IC50 [1] [µM] | IC50 (ASK1/MAP3K5; [2]) [µM] | IC50 (ASK1/MAP3K5) [µM]
1 | O=C1Nc2cccc(n2)-c2nncn2C/C=C/CCOc2cc(F)c(Br)cc21 [Example 177, (Z)-5^5-Bromo-5^4-fluoro-1^4H-6-oxa-3-aza-2(2,6)-pyridina-1(3,4)-triazola-5(1,2)-benzenacycloundecaphan-9-en-4-one] | 1 to 10 | < 0.1 | 
2 | C[C@H]1CCCOc2cc(F)c(-c3cncnc3)cc2C(=O)Nc2cccc(n2)-c2nncn21 [Example 110, (S)-5^4-Fluoro-10-methyl-5^5-(pyrimidin-5-yl)-1^4H-6-oxa-3-aza-2(2,6)-pyridina-1(3,4)-triazola-5(1,2)-benzenacyclodecaphan-4-one] | < 1 | < 0.1 | 
3 | CN1CC=C(c2ccc3c(c2)OCCCCn2cnnc2-c2cccc(n2)NC3=O)CC1 [Example 78, 5^4-(1-Methyl-1,2,3,6-tetrahydropyridin-4-yl)-1^4H-6-oxa-3-aza-2(2,6)-pyridina-1(3,4)-triazola-5(1,2)-benzenacyclodecaphan-4-one] | < 1 |  | < 0.1
4 | C[C@H]1CCCOc2cc(F)c(C#N)cc2C(=O)Nc2cccc(n2)-c2nncn21 [Example 118, (S)-5^4-Fluoro-10-methyl-4-oxo-1^4H-6-oxa-3-aza-2(2,6)-pyridina-1(3,4)-triazola-5(1,2)-benzenacyclodecaphane-5^5-carbonitrile] | < 1 | < 0.1 | 
5 | CC(C)(O)c1ccc2c(c1)C(=O)Nc1cccc(n1)-c1nncn1CCCCO2 [Example 49, 5^5-(2-Hydroxypropan-2-yl)-1^4H-6-oxa-3-aza-2(2,6)-pyridina-1(3,4)-triazola-5(1,2)-benzenacyclodecaphan-4-one] | < 1 | < 0.1 | 
6 | C[C@@H]1CCCOc2cc(F)c(Br)cc2C(=O)Nc2cccc(n2)-c2nncn21 [Example 102, (R)-5^5-Bromo-5^4-fluoro-10-methyl-1^4H-6-oxa-3-aza-2(2,6)-pyridina-1(3,4)-triazola-5(1,2)-benzenacyclodecaphan-4-one] | > 10 | 1 to 10 | 
7 | COCCOc1cc2c(cc1F)OCCC[C@H](C)n1cnnc1-c1cccc(n1)NC2=O [Example 117, (S)-5^4-Fluoro-5^5-(2-methoxyethoxy)-10-methyl-1^4H-6-oxa-3-aza-2(2,6)-pyridina-1(3,4)-triazola-5(1,2)-benzenacyclodecaphan-4-one] | < 1 | < 0.1 | 
8 | Cc1ccnn1-c1ccc2c(c1)C(=O)Nc1cccc(n1)-c1nncn1CCCCO2 [Example 45a, 5^5-(5-Methyl-1H-pyrazol-1-yl)-1^4H-6-oxa-3-aza-2(2,6)-pyridina-1(3,4)-triazola-5(1,2)-benzenacyclodecaphan-4-one] | 1 to 10 | 0.1 to 1 | 
9 | Cn1cc(-c2ccc3c(c2)OCCCCn2cnnc2-c2cccc(n2)NC3=O)cn1 [Example 84, 5^4-(1-Methyl-1H-pyrazol-4-yl)-1^4H-6-oxa-3-aza-2(2,6)-pyridina-1(3,4)-triazola-5(1,2)-benzenacyclodecaphan-4-one] | < 1 | < 0.1 | 
10 | C[C@H]1CCCn2cnnc2-c2cccc(n2)NC(=O)c2cc(N3CCOCC3)ccc2O1 [Example 142, (S)-7-Methyl-5^5-morpholino-1^4H-6-oxa-3-aza-2(2,6)-pyridina-1(3,4)-triazola-5(1,2)-benzenacyclodecaphan-4-one] | < 1 | < 0.1 | 
11 | O=C1Nc2cccc(n2)-c2nncn2CCCCOc2cc(F)c(N3CCOCC3)cc21 [Example 71, 5^4-Fluoro-5^5-morpholino-1^4H-6-oxa-3-aza-2(2,6)-pyridina-1(3,4)-triazola-5(1,2)-benzenacyclodecaphan-4-one] | < 1 | < 0.1 | 
12 | Cc1cn(-c2ccc3c(c2)C(=O)Nc2cccc(n2)-c2nncn2CCC[C@@H](C)O3)cn1 [Example 149, (R)-7-Methyl-5^5-(4-methyl-1H-imidazol-1-yl)-1^4H-6-oxa-3-aza-2(2,6)-pyridina-1(3,4)-triazola-5(1,2)-benzenacyclodecaphan-4-one] | < 1 |  | < 0.1
13 | O=C1Nc2cccc(n2)-c2nncn2CCCCOc2cc(F)c(-c3ccncc3)cc21 [Example 52, 5^4-Fluoro-5^5-(pyridin-4-yl)-1^4H-6-oxa-3-aza-2(2,6)-pyridina-1(3,4)-triazola-5(1,2)-benzenacyclodecaphan-4-one] | < 1 | < 0.1 | 
14 | C[C@H]1CCCn2cnnc2-c2cccc(n2)NC(=O)c2cc(C#N)ccc2O1 [Example 150, (S)-7-Methyl-4-oxo-1^4H-6-oxa-3-aza-2(2,6)-pyridina-1(3,4)-triazola-5(1,2)-benzenacyclodecaphane-5^5-carbonitrile] | < 1 | 0.1 to 1 | 
15 | C[C@@H]1CCCn2cnnc2-c2cccc(n2)NC(=O)c2cc(N3CCN(C)CC3)ccc2O1 [Example 141, (R)-7-Methyl-5^5-(4-methylpiperazin-1-yl)-1^4H-6-oxa-3-aza-2(2,6)-pyridina-1(3,4)-triazola-5(1,2)-benzenacyclodecaphan-4-one] | < 1 | < 0.1 | 
16 | C[C@@H]1CCCn2cnnc2-c2cccc(n2)NC(=O)c2cc(Br)ccc2O1 [Example 137, (R)-5^5-Bromo-7-methyl-1^4H-6-oxa-3-aza-2(2,6)-pyridina-1(3,4)-triazola-5(1,2)-benzenacyclodecaphan-4-one] | 1 to 10 | < 0.1 | 
17 | C[C@@H]1CN(C)CCN1c1ccc2c(c1)OCCCCn1cnnc1-c1cccc(n1)NC2=O [Example 83, (R)-5^4-(2,4-Dimethylpiperazin-1-yl)-1^4H-6-oxa-3-aza-2(2,6)-pyridina-1(3,4)-triazola-5(1,2)-benzenacyclodecaphan-4-one] | < 1 | < 0.1 | 
18 | C[C@H]1CCCn2cnnc2-c2cccc(n2)NC(=O)c2cc(-c3ccncc3)ccc2O1 [Example 144, (S)-7-Methyl-5^5-(pyridin-4-yl)-1^4H-6-oxa-3-aza-2(2,6)-pyridina-1(3,4)-triazola-5(1,2)-benzenacyclodecaphan-4-one] | < 1 | < 0.1 | 
19 | CC(C)n1cc(-c2ccc3c(c2)C(=O)Nc2cccc(n2)-c2nncn2CCCCO3)cn1 [Example 36, 5^5-(1-Isopropyl-1H-pyrazol-4-yl)-1^4H-6-oxa-3-aza-2(2,6)-pyridina-1(3,4)-triazola-5(1,2)-benzenacyclodecaphan-4-one] | < 1 | < 0.1 | 
20 | C[C@H]1CCCOc2cc(F)c(C3=CCOCC3)cc2C(=O)Nc2cccc(n2)-c2nncn21 [Example 108, (S)-5^5-(3,6-Dihydro-2H-pyran-4-yl)-5^4-fluoro-10-methyl-1^4H-6-oxa-3-aza-2(2,6)-pyridina-1(3,4)-triazola-5(1,2)-benzenacyclodecaphan-4-one] | < 1 | < 0.1 | 
21 | CN1CCC(c2cc3c(cc2F)OCCCCn2cnnc2-c2cccc(n2)NC3=O)CC1 [Example 70, 5^4-Fluoro-5^5-(1-methylpiperidin-4-yl)-1^4H-6-oxa-3-aza-2(2,6)-pyridina-1(3,4)-triazola-5(1,2)-benzenacyclodecaphan-4-one] | < 1 | < 0.1 | 
22 | C[C@H]1CCCOc2cc(S(C)(=O)=O)c(Br)cc2C(=O)Nc2cccc(n2)-c2nncn21 [Example 119, (S)-5^5-Bromo-10-methyl-5^4-(methylsulfonyl)-1^4H-6-oxa-3-aza-2(2,6)-pyridina-1(3,4)-triazola-5(1,2)-benzenacyclodecaphan-4-one] | < 1 | < 0.1 | 
23 | C[C@H]1CN(C)CCN1c1ccc2c(c1)OCCCCn1cnnc1-c1cccc(n1)NC2=O [Example 82, (S)-5^4-(2,4-Dimethylpiperazin-1-yl)-1^4H-6-oxa-3-aza-2(2,6)-pyridina-1(3,4)-triazola-5(1,2)-benzenacyclodecaphan-4-one] | < 1 | < 0.1 | 
24 | C[C@@H]1CCCOc2cc(N3CCN(C)CC3)ccc2C(=O)Nc2cccc(n2)-c2nncn21 [Example 123, (R)-10-Methyl-5^4-(4-methylpiperazin-1-yl)-1^4H-6-oxa-3-aza-2(2,6)-pyridina-1(3,4)-triazola-5(1,2)-benzenacyclodecaphan-4-one] | 1 to 10 | 1 to 10 | 
25 | O=C1Nc2cccc(n2)-c2nncn2C/C=C\CCOc2ccccc21 [Example 174, (E)-1^4H-6-Oxa-3-aza-2(2,6)-pyridina-1(3,4)-triazola-5(1,2)-benzenacycloundecaphan-9-en-4-one] | < 1 | < 0.1 | 
26 | C[C@@H]1CCCn2cnnc2-c2cccc(n2)NC(=O)c2cc(C#N)ccc2O1 [Example 151, (R)-7-Methyl-4-oxo-1^4H-6-oxa-3-aza-2(2,6)-pyridina-1(3,4)-triazola-5(1,2)-benzenacyclodecaphane-5^5-carbonitrile] | < 1 | < 0.1 | 
27 | C[C@@H]1CCOc2cc(F)c(Br)cc2C(=O)Nc2cccc(n2)-c2nncn2C1 [Example 125, (R)-5^5-Bromo-5^4-fluoro-9-methyl-1^4H-6-oxa-3-aza-2(2,6)-pyridina-1(3,4)-triazola-5(1,2)-benzenacyclodecaphan-4-one] | 1 to 10 | 0.1 to 1 | 
